Laboratory results from patent US20230203095A1, “BIOLOGICAL PEPTIDE FOR TREATING LUNG DISEASES AND APPLICATION THEREOF” (SHANGHAI INSTITUTE OF PHARMACEUTICAL INDUSTRY CO., LTD., priority 2019, published 2023).
Where “and” joins values, the source holds several entries; their conditions need not be identical. Equal entries are not always repeated. Peptide text beside a SMILES is read from it. * marks the point of attachment. X1 = CC(=O)N[C@H]1C(*)O[C@H](CO)[C@@H](O)[C@@H]1O

Assay: Plasma drug concentrations and pharmacokinetics after a single intravenous or subcutaneous injection of SIPI-G9 in SD rats
Settings: for level at 3 h: 180 min; for level at 4 h: 240 min; for clearance: CL; for MRT last: MRT0-t
Method: Routes: single back subcutaneous injection and single tail vein injection;
Orbital blood was collected at different time points before and after administration. […] High concentration samples were diluted with blank plasma.
Column: SHIM-PACK GISS C18 (2.1 × 100 mm, 1.9 µm); injection volume: 20 µL; mobile phase: phase A: 0.2% acetic acid in water; phase B: methanol, gradient elution (see Table 16 for details);
The ion source is electrospray ionization source (ESI); the drying gas (N2) temperature is 550° C.; the electrospray voltage is 5500 V; the detection method is positive ion detection; the scanning method is the selective reaction monitoring (MRM) method, and the scanning time is 0.15 s.
50 µL plasma was taken and 5 µL internal standard solution (DX07 (His-Leu-Glu-Thr-Glu-Leu-His) 100 ng/mL) was added. After that, 150 µL of methanol was added to precipitate proteins, then centrifuged at 13,000 rpm for 5 min, and 160 µL supernatant was taken and dried with 40° C. N2, then reconstituted with 75 µL of 0.1% formic acid aqueous solution.
Pharmacokinetic parameters were calculated using the non-compartmental model of DAS 2.0 software. Both Cmax and Tmax are measured values; AUC, T½, CL and Vz are calculated by DAS 2.0.

[1] = SIPI-G9 1 mg/kg i.v., SD rats, individual rats, 1 mg/kg
[2] = male, SD, rat, plasma, sc, 5 mg/kg, Plasma G-9 concentration, Mean, SIPI-G9 5 mg/kg s.c., SD rats, n=3
[3] = male, SD, rat, plasma, sc, 5 mg/kg, Plasma G-9 concentration, SIPI-G9 5 mg/kg single subcutaneous injection, SD rats, individual rats
[4] = rat, in vivo, iv, 1 mg/kg, Mean
[5] = rat, in vivo, sc, 5 mg/kg, Mean

For `CC(=O)N[C@H]1C(OC[C@H](NC(=O)[C@@H](NC(=O)[C@H](Cc2ccc(O)cc2)NC(=O)[C@@H](NC(=O)[C@H](CCC(N)=O)NC(=O)CN)[C@@H](C)OC2O[C@H](CO)[C@@H](O)[C@H](O)[C@H]2NC(C)=O)[C@@H](C)O)C(=O)NCC(=O)O)O[C@H](CO)[C@@H](O)[C@@H]1O` (some centres unmarked) [SIPI-G9, GQT(Glc)YTS(Glc)G] (H-GQT(X1)YTS(X1)G-OH), which T1/2 [1] is on record?
Its T1/2 is 8.50 min and 7.50 min.

What about the Vd [1] of the same compound?
Its Vd is 2.23 L/kg and 1.29 L/kg.

What about the “Plasma G-9 concentration” value (SIPI-G9 1 mg/kg single intravenous injection, SD rats, 3 min, individual rats, 1 mg/kg) of the same compound?
The value was 714 ng/mL and 573 ng/mL and 737 ng/mL.

And the “Plasma G-9 concentration” value (SIPI-G9 1 mg/kg single intravenous injection, SD rats, 6 min, individual rats, 1 mg/kg)?
Its value is 265 ng/mL and 231 ng/mL and 295 ng/mL.

What about the “Plasma G-9 concentration” value (SIPI-G9 1 mg/kg single intravenous injection, SD rats, 10 min, individual rats, 1 mg/kg) of the same compound?
Its value is 124 ng/mL and 120 ng/mL and 377 ng/mL.

What about the “Plasma G-9 concentration” value (SIPI-G9 1 mg/kg single intravenous injection, SD rats, 20 min, individual rats, 1 mg/kg) of the same compound?
The value was 33.5 ng/mL and 31.6 ng/mL and 80.0 ng/mL.

And the “Plasma G-9 concentration” value (SIPI-G9 1 mg/kg single intravenous injection, SD rats, 40 min, individual rats, 1 mg/kg)?
Its value is 6.09 ng/mL and 5.68 ng/mL and 6.78 ng/mL.

What about the “Plasma G-9 concentration” value (SIPI-G9 1 mg/kg single intravenous injection, SD rats, 60 min, individual rats, 1 mg/kg) of the same compound?
The value was 1.33 ng/mL and 1.21 ng/mL and 2.00 ng/mL.

What about the “Plasma G-9 concentration” value (SIPI-G9 5 mg/kg single subcutaneous injection, SD rats, 0 min, individual rats) of the same compound?
The value was 0 ng/mL.

And the “Plasma G-9 concentration” value (SIPI-G9 5 mg/kg single subcutaneous injection, SD rats, 40 min, individual rats, 5 mg/kg)?
Its value is 229 ng/mL.

And the “Plasma G-9 concentration” value (SIPI-G9 5 mg/kg single subcutaneous injection, SD rats, 120 min, individual rats, 5 mg/kg)?
The value was 28.5 ng/mL and 33.5 ng/mL and 24.5 ng/mL.

What about the AUC(0-t) (male, SD, rat, in vivo, iv, 1 mg/kg) of the same compound?
The AUC(0-t) was 114 ng·h/mL.

What about the AUC(0-t) (male, SD, rat, in vivo, sc, 5 mg/kg) of the same compound?
The AUC(0-t) was 490 ng·h/mL.

What about the level at 0.05 h (male, SD, rat, plasma, iv, 1 mg/kg, Plasma G-9 concentration, Mean, SIPI-G9 1 mg/kg i.v., SD rats, 3 min, n=3) of the same compound?
The level at 0.05 h was 675 ng/mL.

What about the level at 0.1 h (male, SD, rat, plasma, iv, 1 mg/kg, Plasma G-9 concentration, Mean, SIPI-G9 1 mg/kg i.v., SD rats, 6 min, n=3) of the same compound?
The level at 0.1 h was 264 ng/mL.

What about the level at 10 min (male, SD, rat, plasma, iv, 1 mg/kg, Plasma G-9 concentration, Mean, SIPI-G9 1 mg/kg i.v., SD rats, 10 min, n=3) of the same compound?
Its level at 10 min is 207 ng/mL.

And the level at 20 min (male, SD, rat, plasma, iv, 1 mg/kg, Plasma G-9 concentration, Mean, SIPI-G9 1 mg/kg i.v., SD rats, 20 min, n=3)?
The level at 20 min was 48.4 ng/mL.

And the level at 40 min (male, SD, rat, plasma, iv, 1 mg/kg, Plasma G-9 concentration, Mean, SIPI-G9 1 mg/kg i.v., SD rats, 40 min, n=3)?
The level at 40 min was 6.18 ng/mL.

And the level at 1 h (male, SD, rat, plasma, iv, 1 mg/kg, Plasma G-9 concentration, Mean, SIPI-G9 1 mg/kg i.v., SD rats, 60 min, n=3)?
Its level at 1 h is 1.51 ng/mL.

And the level at 0.05 h (male, SD, rat, plasma, sc, 5 mg/kg, Plasma G-9 concentration, Mean, SIPI-G9 5 mg/kg s.c., SD rats, 3 min, n=3)?
The level at 0.05 h was 699 ng/mL.

And the level at 0.1 h (male, SD, rat, plasma, sc, 5 mg/kg, Plasma G-9 concentration, Mean, SIPI-G9 5 mg/kg s.c., SD rats, 6 min, n=3)?
Its level at 0.1 h is 1020 ng/mL.

What about the level at 10 min (male, SD, rat, plasma, sc, 5 mg/kg, Plasma G-9 concentration, Mean, SIPI-G9 5 mg/kg s.c., SD rats, 10 min, n=3) of the same compound?
Its level at 10 min is 796 ng/mL.

And the level at 20 min (male, SD, rat, plasma, sc, 5 mg/kg, Plasma G-9 concentration, Mean, SIPI-G9 5 mg/kg s.c., SD rats, 20 min, n=3)?
The level at 20 min was 408 ng/mL.

And the level at 40 min (male, SD, rat, plasma, sc, 5 mg/kg, Plasma G-9 concentration, Mean, SIPI-G9 5 mg/kg s.c., SD rats, 40 min, n=3)?
Its level at 40 min is 228 ng/mL.

And the level at 1 h (male, SD, rat, plasma, sc, 5 mg/kg, Plasma G-9 concentration, Mean, SIPI-G9 5 mg/kg s.c., SD rats, 60 min, n=3)?
Its level at 1 h is 131 ng/mL.

And the level at 2 h (male, SD, rat, plasma, sc, 5 mg/kg, Plasma G-9 concentration, Mean, SIPI-G9 5 mg/kg s.c., SD rats, 120 min, n=3)?
Its level at 2 h is 28.8 ng/mL.

What about the level at 3 h [2] of the same compound?
The level at 3 h was 6.01 ng/mL.

And the level at 4 h [2]?
Its level at 4 h is 0.708 ng/mL.

And the level at 0.05 h (male, SD, rat, plasma, sc, 5 mg/kg, Plasma G-9 concentration, SIPI-G9 5 mg/kg single subcutaneous injection, SD rats, 3 min, individual rats)?
Its level at 0.05 h is 758 ng/mL.

And the level at 0.1 h (male, SD, rat, plasma, sc, 5 mg/kg, Plasma G-9 concentration, SIPI-G9 5 mg/kg single subcutaneous injection, SD rats, 6 min, individual rats)?
The level at 0.1 h was 904 ng/mL.

And the level at 10 min (male, SD, rat, plasma, sc, 5 mg/kg, Plasma G-9 concentration, SIPI-G9 5 mg/kg single subcutaneous injection, SD rats, 10 min, individual rats)?
The level at 10 min was 633 ng/mL.

What about the level at 20 min (male, SD, rat, plasma, sc, 5 mg/kg, Plasma G-9 concentration, SIPI-G9 5 mg/kg single subcutaneous injection, SD rats, 20 min, individual rats) of the same compound?
The level at 20 min was 324 ng/mL.

What about the level at 40 min (male, SD, rat, plasma, sc, 5 mg/kg, Plasma G-9 concentration, SIPI-G9 5 mg/kg single subcutaneous injection, SD rats, 40 min, individual rats) of the same compound?
The level at 40 min was 230 ng/mL.

And the level at 1 h (male, SD, rat, plasma, sc, 5 mg/kg, Plasma G-9 concentration, SIPI-G9 5 mg/kg single subcutaneous injection, SD rats, 60 min, individual rats)?
The level at 1 h was 118 ng/mL.

What about the level at 3 h [3] of the same compound?
The level at 3 h was 6.6 ng/mL.

What about the level at 4 h [3] of the same compound?
The level at 4 h was 0.807 ng/mL.

And the “Fa (absolute bioavailability)” value (rat, in vivo)?
The value was 96.6%.

And the bioavailability (rat, in vivo, Fa (absolute bioavailability))?
Its bioavailability is 79.2%.

What about the clearance (rat, in vivo, iv, 1 mg/kg) of the same compound?
Its clearance is 151 mL/min/kg.

What about the clearance [4] of the same compound?
Its clearance is 151 mL/min/kg.

What about the Cmax (rat, in vivo, iv, 1 mg/kg) of the same compound?
The Cmax was 714 ng/mL.

And the Cmax [4]?
Its Cmax is 675 ng/mL.

What about the MRT last (rat, in vivo, iv, 1 mg/kg) of the same compound?
Its MRT last is 5.49 min.

What about the MRT last [4] of the same compound?
The MRT last was 6.63 min.

And the half-life (rat, in vivo, iv, 1 mg/kg, T1/2, Mean, SIPI-G9 1 mg/kg i.v., SD rats, n=3)?
Its half-life is 8.2 min.

And the half-life (rat, in vivo, iv, 1 mg/kg, T1/2, SIPI-G9 1 mg/kg i.v., SD rats, individual rats)?
Its half-life is 8.59 min.

And the Tmax (rat, in vivo, iv, 1 mg/kg)?
Its Tmax is 3 min.

And the Tmax [4]?
Its Tmax is 3 min.

What about the Vd (rat, in vivo, iv, 1 mg/kg, Vd, Mean, SIPI-G9 1 mg/kg i.v., SD rats, n=3) of the same compound?
Its Vd is 1.8 L/kg.

What about the Vd (rat, in vivo, iv, 1 mg/kg, Vd, SIPI-G9 1 mg/kg i.v., SD rats, individual rats) of the same compound?
Its Vd is 1.87 L/kg.

And the Cmax (rat, in vivo, sc, 5 mg/kg)?
The Cmax was 904 ng/mL.

And the Cmax [5]?
The Cmax was 1020 ng/mL.

What about the MRT last (rat, in vivo, sc, 5 mg/kg) of the same compound?
Its MRT last is 34.3 min.

And the MRT last [5]?
Its MRT last is 33.9 min.

What about the Tmax (rat, in vivo, sc, 5 mg/kg) of the same compound?
The Tmax was 6 min.

And the Tmax [5]?
Its Tmax is 7 min.
